From patent publication US20250230193A1, “CYCLIC COMPOUND HAVING SELECTIVE KRAS INHIBITORY EFFECT ON HRAS AND NRAS” (CHUGAI SEIYAKU KABUSHIKI KAISHA, priority 2022, published 2025)
Read-outs that look alike come from different tables or passages of the source. *1 amine or outer side, *2 acyl side, *3 side chain or, on linkers, in order; H or OH if unused. Where a SMILES comes first, the peptide text is derived from it. Bridges are numbered along the chain shown (N, C = ends). [ ]: non-standard residue; d: D form. The star is where a group is joined. hPhe(3,5-F2-4-CF3) = N[C@@H](CCc1cc(F)c(C(F)(F)F)c(F)c1)C(=O)O; NPrPhe(4-CF3) = CCCN[C@@H](Cc1ccc(C(F)(F)F)cc1)C(=O)O; X1 = CN([C@@H](CCCC=[*:3])C(=O)[*:2])[*:1]; X2 = C[C@@](CC=[*:3])(N[*:1])C(=O)[*:2]; NMeGly(cPent) = CN[C@H](C(=O)O)C1CCCC1; Hyp = O=C(O)[C@@H]1C[C@@H](O)CN1; NMeD = CN[C@@H](CC(=O)O)C(=O)O; Morpholide = C1CN(*)CCO1; Sar = CNCC(=O)O

Key:
[1] = test system: human lung cancer strain NCI-H441
[2] = biological target: GDP-bound HRAS wild-type protein (Homo sapiens, UniProt P01112); assay: Binding to HRAS by surface plasmon resonance (SPR), Single Cycle Kinetics; conditions: SPR; for HRAS/KRAS (ratio of KD value with respect to HRAS to KD value with respect to KRAS): GDP-bound HRAS wild-type vs GDP-bound KRAS wild-type; for HRAS/KRAS (ratio of KD value for GDP-bound HRAS wild-type protein to KD value for KRAS): KD ratio class
Sequence of GDP-bound HRAS wild-type protein (P01112 whole entry): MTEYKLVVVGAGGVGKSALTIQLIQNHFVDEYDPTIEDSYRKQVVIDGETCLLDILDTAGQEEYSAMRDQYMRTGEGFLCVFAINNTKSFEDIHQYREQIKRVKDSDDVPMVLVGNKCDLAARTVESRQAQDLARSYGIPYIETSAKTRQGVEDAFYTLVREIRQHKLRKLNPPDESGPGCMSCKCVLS

[3] = biological target: GDP-bound KRAS wild-type protein (Homo sapiens, UniProt P01116); assay: Binding to KRAS by surface plasmon resonance (SPR), Single Cycle Kinetics; conditions: GDP-bound KRAS wild-type protein
[4] = biological target: GDP-bound NRAS wild-type protein (Homo sapiens, UniProt P01111); assay: Binding to NRAS by surface plasmon resonance (SPR), Single Cycle Kinetics; conditions: SPR; for NRAS/KRAS (ratio of KD value with respect to NRAS to KD value with respect to KRAS): GDP-bound NRAS wild-type vs GDP-bound KRAS wild-type; for NRAS/KRAS (ratio of KD value for GDP-bound NRAS wild-type protein to KD value for KRAS): KD ratio class
Sequence of GDP-bound NRAS wild-type protein (P01111 whole entry): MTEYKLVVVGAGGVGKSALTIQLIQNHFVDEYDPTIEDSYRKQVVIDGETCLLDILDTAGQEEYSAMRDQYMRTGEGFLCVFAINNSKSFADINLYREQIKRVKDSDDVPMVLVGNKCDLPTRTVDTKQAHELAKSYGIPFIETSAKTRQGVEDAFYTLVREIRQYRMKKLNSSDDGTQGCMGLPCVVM

[5] = SPR Single Cycle Kinetics, 1:1 binding model
[6] = read-out: NCI-H441 IC50, NCI-H441 cells, 4 days, CellTiter-Glo

Row | Structure (SMILES) | IC50 [1] | HRAS/KRAS (ratio of KD value with respect to GDP-bound HRAS wild-type protein to KD value with respect to KRAS) [2] | Kd [3, 5] | NRAS/KRAS (ratio of KD value with respect to GDP-bound NRAS wild-type protein to KD value with respect to KRAS) [4] | HRAS/KRAS (ratio of KD value with respect to HRAS to KD value with respect to KRAS) [2] | Kd ([3]; SPR, Single Cycle Kinetics) | NRAS/KRAS (ratio of KD value with respect to NRAS to KD value with respect to KRAS) [4] | IC50 [1, 6] | HRAS/KRAS (ratio of KD value for GDP-bound HRAS wild-type protein to KD value for KRAS) [2] | NRAS/KRAS (ratio of KD value for GDP-bound NRAS wild-type protein to KD value for KRAS) [4]
1 | CC[C@H](C)[C@@H]1NC(=O)[C@H](CC(C)C)N(C)C(=O)C[C@@H](C(=O)N(C)C)N(C)C(=O)[C@H](C2CCCC2)N(C)C(=O)C2(CCCC2)NC(=O)C2CCCN2C(=O)[C@H](CCc2ccc(C(F)(F)F)c(Cl)c2)NC(=O)CN(C)C(=O)[C@H](Cc2ccc(C(F)(F)F)cc2)N2CC/C=C(/C)C[C@@H](C2=O)N(C)C(=O)CN(C)C1=O (some centres unmarked) [PP0617] | 159 nM | B (a compound having 3 or more and less than 10 is denoted as B) | 6.9 nM | B (a compound having 3 or more and less than 10 is denoted as B) |  |  |  |  |  | 
2 | CC[C@H](C)C1NC(=O)[C@H](CC(C)C)N(C)C(=O)C[C@@H](C(=O)N(C)C)N(C)C(=O)[C@H](C2CCCC2)N(C)C(=O)C2(CCCC2)NC(=O)C2CCCN2C(=O)[C@@H](CCc2ccc(C(F)(F)F)c(Cl)c2)NC(=O)CN(C)C(=O)[C@@H](Cc2ccc(C(F)(F)F)cc2)N2CC/C=C\CCN(CC2=O)C(=O)CN(C)C1=O (some centres unmarked) [PP0619] | 70.7 nM | C (A compound having a KD ratio of 0.1 or more and less than 3 is denoted as C) | 3.7 nM | C (A compound having a KD ratio of 0.1 or more and less than 3 is denoted as C) |  |  |  |  |  | 
3 | CC[C@H](C)[C@@H]1NC(=O)[C@H](CC(C)C)N(C)C(=O)C[C@@H](C(=O)N(C)C)N(C)C(=O)[C@H](C2CCCC2)N(C)C(=O)C2(CCCC2)NC(=O)[C@@H]2CCCN2C(=O)[C@H](CCc2ccc(C(F)(F)F)c(Cl)c2)NC(=O)CN(C)C(=O)[C@H](Cc2ccc(C(F)(F)F)cc2)N2CC=C(C)C[C@@H](C2=O)N(C)C(=O)CN(C)C1=O [PP0621] | 83.6 nM | C (A compound having a KD ratio of 0.1 or more and less than 3 is denoted as C) | 2.4 nM | C (A compound having a KD ratio of 0.1 or more and less than 3 is denoted as C) |  |  |  |  |  | 
4 | CC[C@H](C)[C@@H]1NC(=O)[C@H](CC(C)C)N(C)C(=O)C[C@@H](C(=O)N(C)C)N(C)C(=O)[C@H](C2CCCC2)N(C)C(=O)C2(CCCC2)NC(=O)[C@@H]2CCCN2C(=O)[C@H](CCc2ccc(C(F)(F)F)c(Cl)c2)NC(=O)CN(C)C(=O)[C@H](Cc2ccc(C(F)(F)F)cc2)N2C/C=C\COC[C@@H](C2=O)N(C)C(=O)CN(C)C1=O [PP0626] | 158 nM | C (A compound having a KD ratio of 0.1 or more and less than 3 is denoted as C) | 7.1 nM | C (A compound having a KD ratio of 0.1 or more and less than 3 is denoted as C) |  |  |  |  |  | 
5 | CCCN1C(=O)CN(C)C(=O)CN(C)C(=O)[C@H]([C@@H](C)CC)NC(=O)[C@@H]2CCC/C=C\C[C@](C)(NC(=O)[C@@H]3C[C@@H](OCC)CN3C(=O)[C@H](CCc3cc(F)c(C(F)(F)F)c(F)c3)NC(=O)CN(C)C(=O)[C@@H]1Cc1ccc(C(F)(F)F)cc1)C(=O)N(C)[C@@H](C1CCCC1)C(=O)N(C)[C@H](C(=O)N1CCOCC1)CC(=O)N2C [PP0901] ([X1]I[Sar][Sar][NPrPhe(4-CF3)][Sar][hPhe(3,5-F2-4-CF3)][Hyp](Et)[X2][NMeGly(cPent)][NMeD]-Morpholide; staple (Z) 1-9; lactam N-11) | 332 nM |  |  |  | B (a compound having 3 or more and less than 10 is denoted as B) | 3 nM | B (a compound having 3 or more and less than 10 is denoted as B) |  |  | 
6 | CCO[C@@H]1C[C@H]2C(=O)NC3(CCC3)C(=O)N(C)[C@@H](C3CCCC3)C(=O)N(CC)[C@H](C(=O)N(C)C)CC(=O)N(C)[C@@H](CC)C(=O)N[C@@H]([C@@H](C)CC)C(=O)N(C)CC(=O)N(C)[C@H]3CCCCCN(C3=O)[C@@H](Cc3ccc(F)cc3)C(=O)N(C)CC(=O)N[C@@H](CCc3cc(F)c(C(F)(F)F)c(F)c3)C(=O)N2C1 [PP0904] | 58.7 nM |  |  |  | B (a compound having 3 or more and less than 10 is denoted as B) | 0.8 nM | B (a compound having 3 or more and less than 10 is denoted as B) |  |  | 
7 | CCO[C@@H]1C[C@H]2C(=O)NC3(CCC3)C(=O)N(C)[C@@H](C3CCCC3)C(=O)N(CC)[C@H](C(=O)N3CCOCC3)CC(=O)N(C)[C@@H](CC)C(=O)N[C@@H]([C@@H](C)CC)C(=O)N(C)CC(=O)N(C)[C@H]3CCCCCN(C3=O)[C@@H](Cc3ccc(F)cc3)C(=O)N(C)CC(=O)N[C@@H](CCc3cc(F)c(C(F)(F)F)c(F)c3)C(=O)N2C1 [PP0905] | 92 nM |  |  |  | B (a compound having 3 or more and less than 10 is denoted as B) | 0.79 nM | B (a compound having 3 or more and less than 10 is denoted as B) |  |  | 
8 | CCO[C@@H]1C[C@H]2C(=O)NC3(CCC3)C(=O)N(C)[C@@H](C3CCCC3)C(=O)N(C)[C@H](C(=O)N(C)C)CC(=O)N(C)[C@@H](CC)C(=O)N[C@@H]([C@@H](C)CC)C(=O)N(C)CC(=O)N(C)[C@H]3CCCCCN(C3=O)[C@@H](Cc3ccc(F)cc3F)C(=O)N(C)CC(=O)N[C@@H](CCc3cc(F)c(C(F)(F)F)c(F)c3)C(=O)N2C1 [PP0906] | 36.9 nM |  |  |  | B (a compound having 3 or more and less than 10 is denoted as B) | 0.29 nM | B (a compound having 3 or more and less than 10 is denoted as B) |  |  | 
9 | CCO[C@@H]1C[C@H]2C(=O)NC3(CCC3)C(=O)N(C)[C@@H](C3CCCC3)C(=O)N(C)[C@H](C(=O)N3CCOCC3)CC(=O)N(C)[C@@H](CC(C)C)C(=O)N[C@@H]([C@@H](C)CC)C(=O)N(C)CC(=O)N(C)[C@H]3CCCCCN(C3=O)[C@@H](Cc3ccc(F)cc3F)C(=O)N(C)CC(=O)N[C@@H](CCc3cc(F)c(C(F)(F)F)c(F)c3)C(=O)N2C1 [PP0916] | 35.9 nM |  |  |  | B (a compound having 3 or more and less than 10 is denoted as B) | 0.34 nM | B (a compound having 3 or more and less than 10 is denoted as B) |  |  | 
10 | CCCCCC[C@H]1C(=O)N[C@@H]([C@@H](C)CC)C(=O)N(C)CC(=O)N(C)[C@H]2C/C=C\CCN(C2=O)[C@@H](Cc2ccc(C(F)(F)F)cc2)C(=O)N(C)CC(=O)N[C@@H](CCc2cc(F)c(C(F)(F)F)c(F)c2)C(=O)N2C[C@H](OCC)C[C@H]2C(=O)NC2(CCC2)C(=O)N(C)[C@@H](C2CCCC2)C(=O)N(C)[C@H](C(=O)N(C)C)CC(=O)N1C [PP1242] |  |  |  |  |  | 0.076 nM |  | 12.8 nM | A (a compound having 10 or more and less than 20 is denoted as A) | A (a compound having 10 or more and less than 20 is denoted as A)
11 | CCO[C@@H]1C[C@H]2C(=O)NC3(CCC3)C(=O)N(C)[C@@H](C3CCCC3)C(=O)N(C)[C@H](C(=O)N(C)C)CC(=O)N(C)[C@@H](CC(C)C)C(=O)N[C@@H]([C@@H](C)CC)C(=O)N(C)CC(=O)N(C)[C@H]3C/C=C\CCN(C3=O)[C@@H](Cc3ccc(C(F)(F)F)cc3)C(=O)N(C)CC(=O)N[C@@H](CCc3ccc(C(F)(F)F)c(OC)c3)C(=O)N2C1 [PP1245] |  |  |  |  |  | 0.06 nM |  | 3.7 nM | B (a compound having 3 or more and less than 10 is denoted as B) | A (a compound having 10 or more and less than 20 is denoted as A)
12 | CCCCCC[C@H]1C(=O)N[C@@H]([C@@H](C)CC)C(=O)N(C)CC(=O)N(C)[C@H]2C/C=C\CCN(C2=O)[C@@H](Cc2ccc(C(F)(F)F)cc2)C(=O)N(C)CC(=O)N[C@@H](CCc2ccc(C(F)(F)F)c(OC)c2)C(=O)N2C[C@H](OCC)C[C@H]2C(=O)NC2(CCC2)C(=O)N(C)[C@@H](C2CCCC2)C(=O)N(C)[C@H](C(=O)N(C)C)CC(=O)N1C [PP1246] |  |  |  |  |  | 0.081 nM |  | 9 nM | A (a compound having 10 or more and less than 20 is denoted as A) | A (a compound having 10 or more and less than 20 is denoted as A)
13 | CCO[C@@H]1C[C@H]2C(=O)NC3(CCC3)C(=O)N(C)[C@@H](C3CCCC3)C(=O)N(C)[C@H](C(=O)N(C)C)CC(=O)N(C)[C@@H](CC3CC3)C(=O)N[C@@H]([C@@H](C)CC)C(=O)N(C)CC(=O)N(C)[C@H]3C/C=C\CCN(C3=O)[C@@H](Cc3ccc(C(F)(F)F)cc3)C(=O)N(C)CC(=O)N[C@@H](CCc3ccc(C(F)(F)F)c(OC)c3)C(=O)N2C1 [PP1247] |  |  |  |  |  | 0.046 nM |  | 6.4 nM | A (a compound having 10 or more and less than 20 is denoted as A) | A (a compound having 10 or more and less than 20 is denoted as A)
14 | CCO[C@@H]1C[C@H]2C(=O)NC3(CCC3)C(=O)N(C)[C@@H](C3CCCC3)C(=O)N(C)[C@H](C(=O)N(C)C)CC(=O)N(C)[C@@H](CC3CC3)C(=O)N[C@@H]([C@@H](C)CC)C(=O)N(C)CC(=O)N(C)[C@H]3C/C=C\CCN(C3=O)[C@@H](Cc3ccc(C(F)(F)F)cc3)C(=O)N(C)CC(=O)N[C@@H](CCc3ccc(Cl)c(Cl)c3)C(=O)N2C1 [PP1253] |  |  |  |  |  | 0.2 nM |  | 22.2 nM | A (a compound having 10 or more and less than 20 is denoted as A) | A (a compound having 10 or more and less than 20 is denoted as A)
